Consider 5 compounds from patent US20220218851A1, “COMPOUNDS AND METHODS FOR IMAGING IMMUNE ACTIVITY” (Board of Regents, The University of Texas System, priority 2019, published 2022).

Entries after “also recorded” stand apart in the source; their conditions may differ. Where a name gives a salt, the structure may show the parent alone.

The test system of series [1] is neutrophil-like human HL-60 cells. Briefly: [^18F]4FN cellular retention in PMA-activated neutrophil-like HL-60 cells. Type of series: cell-based. Conditions: pre-incubation with inhibitor prior to PMA. As to the method: HL-60 cells were first differentiated to yield “neutrophil-like” cells. Then, in parallel, cell aliquots from each batch were imaged with L-012 (to confirm ROS production by bioluminescence) and incubated with 6.2 kBq of [^18F]4FN. To induce ROS, all cells were incubated with PMA. […] Data were quantified as a ratio of the cell-associated radioactive counts per milligram protein over concentration of radiotracer in the extracellular space, and then normalized to vehicle.

A further series has as its system 4T1 tumor. Briefly: 4T1 tumor PET imaging. Type of series: in vivo, mouse. Conditions: immunocompetent Balb/C mice, 1 h after injection. As to the method: 4T1 murine breast cancer cells were cultured and passaged per ATCC guidelines and utilized prior to 20 passages. 10,000 4T1 cells were injected subcutaneously into the right flank of 6-8 week old Balb/c mice. Tumors grew for 3 weeks prior to imaging. In all cases, PET images were acquired for 10 min using a 15 cm FOV; CT images were acquired for fusion using a 7 cm FOV also centered on the object of interest. Image data were decay corrected to injection time (Albira, Bruker) and expressed as % ID/cc or SUV as indicated (PMOD, PMOD Technologies). Actual injected dose was calculated based on measuring the pre- and post-injection activity in the syringe with a dose calibrator on a per mouse basis (Capintec), and mice were individually weighed to calculate individual standardized uptake values. [^18F]4FNS PET has been employed to visualize 4T1 tumors in immunocompetent Balb/C mice. 4T1 is a reliable murine model for triple negative breast cancer and, in its early proliferative stage, is believed to be heavily infiltrated by immune cells, particularly active neutrophils and myeloid derived suppressor cells (MDSCs; Wang et al., 2017 and Bunt et al., 2006).

Series [2] deals with PMA-induced ear inflammation. Briefly: PMA ear inflammation model, PET/CT imaging. Format: in vivo, mouse. Conditions: for detection of PMA-inflamed ear versus vehicle ear by PET: about 1 hr post tracer injection ([^18F]FDG from 45 min). As to the method:
3 Months old Balb/c female mice or 20-26 week-old female C57B16 mice (Taconic) were topically treated with PMA (Sigma) (400 μM) in ethanol on the right ear or vehicle, ethanol, on the left ear. 24 hrs later, inflammation of the right ear was validated by visual inspection for redness and swelling. Mice were then injected IV (unless noted) with [^18F]FN or [^18F]FNS or [^18F]FNG derivatives as noted and PET/CT images were acquired at times indicated, typically 1 hr post injection. Mice, n=3 for [^18F]FN and [^18F]FNS, were euthanized at 1.5 hr post injection for blood metabolism analysis. In one experiment, adult (3 month old Balb/c) were imaged on an in vivo imaging system (IVIS Spectrum, PE; 5 min, binning 16, 25 cm FOV) 10 min post injection of Luminol (200 mg/kg) IP to confirm production of reactive oxygen species. For [^18F]FDG PET imaging experiments, mice were fasted for >4 hr prior to FDG injection. Mice were injected with [^18F]FDG IV under light anesthesia and then allowed to awake, move and drink water at libitum. Cages were kept on a cage warmer during uptake and washout periods. Mice were imaged starting at 45 min post-injection with a 10 min PET/CT scan (Albira, Bruker). In all cases, PET images were acquired for 10 min using a 15 cm FOV; CT images were acquired for fusion using a 7 cm FOV also centered on the object of interest. Image data were decay corrected to injection time (Albira, Bruker) and expressed as % ID/cc or SUV as indicated (PMOD, PMOD Technologies). Actual injected dose was calculated based on measuring the pre- and post-injection activity in the syringe with a dose calibrator on a per mouse basis (Capintec), and mice were individually weighed to calculate individual standardized uptake values. In the context of an acute inflammation model, [^18F]4FN was tested in a pilot experiment in Balb/c mice topically treated with PMA on the right ear or vehicle on the left ear. The treated ear turned red, visually confirming the inflammation site. Mice were injected IP with [^18F]4FN and PET/CT scans were taken at 11 min, 1 h, 2 h and 3 h post injection of tracer (FIG. 5). […] After 1 h, the inflamed ear was clearly visualized (>2% ID/cc). […] Production of reactive oxygen species in the inflamed ear was confirmed by BLI with luminol after PET imaging (FIG. 5) (Gross et al., 2009). This indicated the dependence of the signal on induced inflammation.

In the case of `c1ccc2c(c1)[I+]c1ccccc1-2` [DPI, reference compound], the “blocking of PMA-induced [^18F]4FN retention” value in series [1] was “blocked”.

Consider `O=S(=O)(O)Oc1ccc([18F])c2ccccc12` [[^18F]4FNS, [^18F]4-fluoronaphthalen-1-yl sulfate], for which the “visualization of 4T1 tumor by PET” value in the series with 4T1 tumor is “clearly visible; also recorded: easily distinguishable”. Further, the “detection of PMA-inflamed ear versus vehicle ear by PET” value in series [2] (IV injection) is on record as “readily detected; also recorded: clearly visible; also recorded: readily detectable”. Moreover, in series [2] (IV injection, n=3), the clearance entry was “Rapid primarily renal clearance”, the “defluorination (bone)” value is “minor defluorination” and the hepatobiliary excretion entry is given as “minor hepatobiliary excretion”.

As to `OC[C@H]1OC(O)[C@H]([18F])[C@@H](O)[C@@H]1O` (some centres unmarked) [[^18F]FDG, reference compound], the “detection of PMA-inflamed ear versus vehicle ear by PET” value in series [2] (IV injection) is reported as “no differentiation between the ears; also recorded: no FDG image asymmetry was observed”.

For the compound `O=C(O)C1OC(Oc2ccc([18F])c3ccccc23)C(O)C(O)C1O` (centres unmarked) [[^18F]4FNG, [^18F]4-fluoronaphthalen-1-yl glucuronide], the “detection of PMA-inflamed ear versus vehicle ear by PET” value in series [2] (IV injection) is “small differentiation”. Further, the “clearance relative to other tracers” value in series [2] (PMA model) is on record as “cleared much faster”. Further, the “retention in PMA-inflamed ear relative to other tracers” value in series [2] (PMA model, 1 h post injection) was “retained much less than [^18F]FN and [^18F]FNS”.

Turning to `O=C([O-])CC(O)(CC(=O)[O-])C(=O)[O-].[68Ga+3]` [^68Ga-citrate, reference compound], the “difference between inflamed and vehicle ears (perfusion control)” value in series [2] (same animals, same time points) is “No difference between the ears”.
